Results as given in patent publication US20220395553A1, “CXCR4 ANTAGONIST PEPTIDES” (COHBAR, INC., priority 2019, published 2022).
Square brackets hold non-standard residues; d marks the D form. Peptide text beside a SMILES is read from it.

Experiments:
Jurkat cells = assay: CXCL12 mediated cell migration, Jurkat cells; type: cell-based, human; settings: 1.1 μM test article, 100 ng/ml CXCL12, 1 hour
Protocol: The assay was performed following a protocol similar to that described by Peng, et al., Mol Cancer Ther., 14480-90 (2015), incorporated herein by reference. Peptides were initially prepared as 1 mM stock in H2O and tested at a final concentration of 1.1 μM. […] Jurkat cells were resuspended in serum free media (RPMI+GlutaMax; Gibco/Thermo Fisher Scientific; Gaithersburg, Md.) containing 0.5% bovine serum albumin at density of 5×10^6 cells/ml. […] Cells (250,000 cells in 50 μl) supplemented with the appropriate treatments were seeded on to the upper chamber of a 96-well 5 μm HTS Transwell filter insert (Corning/Costar; Tewksbury, Mass.). […] Filter inserts were immediately placed on top of 96-well receiver trays and placed at 37° C. in a humidified atmosphere of 5% CO2/95% air for 1 hour. Following the 1 hour incubation period the filter inserts were carefully removed and the migration of cells across the filter into the bottom chamber (receiver wells) was determined by measuring ATP levels using Cell TiterGlo 2.0, according to manufacturer's instructions (Promega; Madison, Wis.); luminescence was measured using a Cytation 3 plate reader (BioTek; Winooski, Vt.).

[1] = system: CXCR4/CXCL12 induced p-MEK; assay: CXCR4/CXCL12 induced p-MEK in Jurkat cells (ELISA); type: cell-based, human; settings: 5 nM CXCL12, 5 min
How it was run: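 Jurkat cells in RPMI+GlutaMax containing 10% FBS and 1% penicillin/streptomycin, fresh or conditioned, were resuspended at 2×10^6 cells/ml and […] aliquots placed in tubes. After a 5 min stimulation they were pelleted, rinsed with HBSS and lysed with PMSF and protease/phosphatase inhibitors. Phospho-MEK1 (Ser217/221) was quantified by sandwich ELISA with absorbance read at 450 nm.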

human CXCR4 [2] = target: T1, human CXCR4 (Homo sapiens, UniProt P61073); assay: CXCR4/CXCL12 binding, HTRF format, single concentration (Example 23); parameters: host or cells: HEK293 (Tag-lite CXCR4 cells, frozen aliquots, transient expression); settings: 15 nM CXCR4R fluorescent probe, 3 hours, HEK293 Tag-lite CXCR4 cells
T1 sequence (P61073 whole entry): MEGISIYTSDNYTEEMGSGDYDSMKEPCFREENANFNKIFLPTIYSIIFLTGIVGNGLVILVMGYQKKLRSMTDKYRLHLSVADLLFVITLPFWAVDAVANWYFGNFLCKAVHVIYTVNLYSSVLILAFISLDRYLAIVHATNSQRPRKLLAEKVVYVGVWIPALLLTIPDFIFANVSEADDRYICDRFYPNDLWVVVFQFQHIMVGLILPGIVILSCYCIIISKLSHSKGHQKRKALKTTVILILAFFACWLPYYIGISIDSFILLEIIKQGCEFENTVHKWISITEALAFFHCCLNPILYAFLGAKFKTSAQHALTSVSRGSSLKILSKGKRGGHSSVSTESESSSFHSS
How it was run: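 Tag-lite CXCR4 cells were exposed to peptide at 400 nM final with 15 nM (EC80) fluorescent CXCR4 probe for 3 h at room temperature. HTRF was read, and the 665/620 nm ratio ×10,000 measured probe bound to terbium-labelled receptor.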

human CXCR4 [3] = target: T1, human CXCR4; assay: IC50 for CXCR4/CXCL12 ligand binding, HTRF format (Example 24); parameters: host or cells: HEK293 (Tag-lite CXCR4 cells, frozen aliquots, transient expression)
Protocol: Peptides were initially prepared as 1 mM stock in H2O. […] Following the manufacture's protocol, a frozen aliquot of Tag-lite CXCR4 cells was thawed and immediately seeded onto 384-well plates in TLB. […] The plates were covered in aluminum foil and left at room temperature for 3 hours. Following the 3 hour incubation period, the plates were removed from the incubator and fluorescence measured using a Cytation 1 plate reader using a HTRF filter cube ([…]; BioTek; Winooski, Vt.).

human CXCR4 [4] = target: T1, human CXCR4; assay: IC50 for inhibition of CXCR4 activation, β-Arrestin recruitment (Example 22); type: cell-based; parameters: host or cells: C2C12 (mouse myoblast) CXCR4 β-Arrestin PathHunter cell line
How it was run: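 C2C12 cells co-expressing ProLink-tagged human CXCR4 and Enzyme Acceptor-tagged β-arrestin (PathHunter). Peptides tested in 10-point, 3-fold dilutions from 1 μM (1 μM–0.05 nM). Recruitment read by chemiluminescent enzyme-fragment complementation after 90 min incubation.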

| SMILES | Percent Inhibition of CXCL12 Mediated Migration (1.1 μM Test Article) (Jurkat cells) | Percent Inhibition of CXCR4/CXCL12 Induced p-MEK (100 nM Test Article) [1] | Percent Inhibition of CXCR4/CXCL12 Induced p-MEK (1 μM Test Article) [1] | Percent Inhibition of CXCR4/CXCL12 Binding (400 nM peptide) (human CXCR4 [2]) | IC50 (human CXCR4 [3]) | IC50 (human CXCR4 [4]) |
| --- | --- | --- | --- | --- | --- | --- |
| CC(C)C[C@H](NC(=O)[C@H](CO)NC(=O)[C@H](CO)NC(=O)[C@H](CCCNC(=N)N)NC(=O)[C@@H](NC(=O)[C@H](CO)NC(=O)[C@H](Cc1c[nH]cn1)NC(=O)[C@H](Cc1c[nH]cn1)NC(=O)[C@H](Cc1ccc(O)cc1)NC(=O)[C@H](CCCNC(=N)N)NC(=O)[C@H](CC(=O)O)NC(=O)[C@@H](N)CC(C)C)C(C)C)C(=O)N[C@@H](CCCNC(=N)N)C(=O)N1CCC[C@H]1C(=O)N[C@@H](Cc1ccc(O)cc1)C(=O)N[C@H](C(=O)N[C@@H](CCCCN)C(=O)O)[C@@H](C)O [compound 7] (H-LDRYHHSVRSSLRPYTK-OH; N-terminus and C-terminus assumed) | 52% | 60% | 96% | 89% | 5 nM |  |
| CC(C)C[C@H](NC(=O)[C@H](CO)NC(=O)[C@H](CO)NC(=O)[C@H](CCCNC(=N)N)NC(=O)[C@@H](C)NC(=O)[C@H](CO)NC(=O)[C@H](Cc1c[nH]cn1)NC(=O)[C@H](Cc1c[nH]cn1)NC(=O)[C@H](Cc1ccc(O)cc1)NC(=O)[C@H](CCCNC(=N)N)NC(=O)[C@H](CC(=O)O)NC(=O)[C@@H](N)CC(C)C)C(=O)N[C@@H](CCCNC(=N)N)C(=O)N1CCC[C@H]1C(=O)N[C@@H](Cc1ccc(O)cc1)C(=O)N[C@H](C(=O)N[C@@H](CCCCN)C(=O)O)[C@@H](C)O [compound 8] (H-LDRYHHS[dA]RSSLRPYTK-OH; N-terminus and C-terminus assumed) | 94% | 32% | 88% | 86% |  | 3 nM |
| CC(C)C[C@H](NC(=O)[C@H](CO)NC(=O)[C@H](CO)NC(=O)[C@H](CCCNC(=N)N)NC(=O)[C@@H](NC(=O)[C@H](CO)NC(=O)[C@H](Cc1c[nH]cn1)NC(=O)[C@H](Cc1c[nH]cn1)NC(=O)[C@H](Cc1ccc(O)cc1)NC(=O)[C@H](CCCNC(=N)N)NC(=O)[C@H](CCCNC(=N)N)NC(=O)[C@@H](N)CC(C)C)C(C)C)C(=O)N[C@@H](CCCNC(=N)N)C(=O)N1CCC[C@H]1C(=O)N[C@@H](Cc1ccc(O)cc1)C(=O)N[C@H](C(=O)N[C@@H](CCCCN)C(N)=O)[C@@H](C)O [compound 16] (H-LRRYHHSVRSSLRPYTK-NH2; N-terminus assumed) | 21% | 74% | 100% | −2% | 573 nM | 8 nM |
| CC(C)C[C@H](NC(=O)[C@H](CO)NC(=O)[C@H](CO)NC(=O)[C@H](CCCNC(=N)N)NC(=O)[C@@H](NC(=O)[C@@H](NC(=O)[C@H](Cc1c[nH]cn1)NC(=O)[C@H](Cc1c[nH]cn1)NC(=O)[C@H](Cc1ccc(O)cc1)NC(=O)[C@H](CCCNC(=N)N)NC(=O)[C@H](CCCNC(=N)N)NC(=O)[C@@H](N)CC(C)C)[C@@H](C)O)C(C)C)C(=O)N[C@@H](CCCNC(=N)N)C(=O)N1CCC[C@H]1C(=O)N[C@@H](Cc1ccc(O)cc1)C(=O)N[C@H](C(=O)N[C@@H](CCCCN)C(=O)O)[C@@H](C)O [compound 38] (H-LRRYHHTVRSSLRPYTK-OH; N-terminus and C-terminus assumed) |  | 51% | 96% | 12% | 175 nM | 3 nM |
| CC(C)C[C@H](NC(=O)[C@H](CO)NC(=O)[C@H](CO)NC(=O)[C@H](CCCNC(=N)N)NC(=O)[C@@H](NC(=O)[C@H](CO)NC(=O)[C@H](Cc1c[nH]cn1)NC(=O)[C@H](Cc1c[nH]cn1)NC(=O)[C@H](Cc1ccccc1)NC(=O)[C@H](CCCNC(=N)N)NC(=O)[C@H](CCCNC(=N)N)NC(=O)[C@@H](N)CC(C)C)C(C)C)C(=O)N[C@@H](CCCNC(=N)N)C(=O)N1CCC[C@H]1C(=O)N[C@@H](Cc1ccc(O)cc1)C(=O)N[C@H](C(=O)N[C@@H](CCCCN)C(=O)O)[C@@H](C)O [compound 53] (H-LRRFHHSVRSSLRPYTK-OH; N-terminus and C-terminus assumed) | 59% | 62% | 98% | 5% |  | 3 nM |
| CC(C)C[C@H](NC(=O)[C@H](CO)NC(=O)[C@@H](NC(=O)[C@H](CCCNC(=N)N)NC(=O)[C@@H](NC(=O)[C@H](CO)NC(=O)[C@H](Cc1c[nH]cn1)NC(=O)[C@H](Cc1c[nH]cn1)NC(=O)[C@H](Cc1ccc(O)cc1)NC(=O)[C@H](CCCNC(=N)N)NC(=O)[C@H](CCC(=O)O)NC(=O)[C@@H](N)CC(C)C)C(C)C)[C@@H](C)O)C(=O)N[C@@H](CCCNC(=N)N)C(=O)N1CCC[C@H]1C(=O)N[C@@H](Cc1ccc(O)cc1)C(=O)N[C@H](C(=O)N[C@@H](CCCCN)C(=O)O)[C@@H](C)O [compound 73] (H-LERYHHSVRTSLRPYTK-OH; N-terminus and C-terminus assumed) | 82% | 47% | 96% | 87% |  | 4 nM |
| CC(C)C[C@H](NC(=O)[C@H](CO)NC(=O)[C@H](CO)NC(=O)[C@H](CCCNC(=N)N)NC(=O)[C@@H](NC(=O)[C@H](CO)NC(=O)[C@H](Cc1c[nH]cn1)NC(=O)[C@H](Cc1c[nH]cn1)NC(=O)[C@H](Cc1ccc(O)cc1)NC(=O)[C@H](CCCNC(=N)N)NC(=O)[C@H](CCCNC(=N)N)NC(=O)[C@@H](N)CC(C)C)C(C)C)C(=O)N[C@@H](CCCNC(=N)N)C(=O)NCC(=O)N[C@@H](Cc1ccc(O)cc1)C(=O)N[C@H](C(=O)N[C@@H](CCCCN)C(=O)O)[C@@H](C)O [compound 79] (H-LRRYHHSVRSSLRGYTK-OH; N-terminus and C-terminus assumed) | 36% | 46% | 100% | 12% |  | 3 nM |
